Data set [1] concerns Human normal fibroblast cell line (WI-38). Briefly: cells. To be noted: for cytotoxicity compared with parent oleanolic acid: in words. Type of data set: cell-based. Here is the method:
The cytotoxicity of tested compounds was evaluated in parallel on a Human normal fibroblast cell line (WI-38) cultivated in a humidified atmosphere with 5% CO2 at 37° C. Human normal fibroblast cell line (WI-38) was cultivated in DMEM medium (Life Technologies) containing 4 mM L-glutamine, 1 mM sodium pyruvate supplemented with 10% fetal bovine serum (Sigma) and penicillin-streptomycin (100 UI/mL).
(§1) Suramine (a commercial anti-trypanosomal drug) and camptothecin were used as positive controls. Stock solutions of compounds to be tested were prepared at a concentration of 10 mg/mL in DMSO. The solutions were further diluted in medium (described in 1.1) to give 0.1 mg/mL stock solutions. Extracts and compounds were tested in eight serial three-fold dilutions (final concentration range: 50-0.02 mg/L) in 96-well microliter plates. All tests were performed at least in duplicate.

Data set [2] relates to Trypanosoma brucei brucei bloodstream forms (strain 427). Briefly: In vitro antitrypanosomal activity on Tbb BSF. Type of data set: cell-based. To be noted: for SI (Selectivity Index): cytotoxicity in WI38 compared to Tbb; for antitrypanosomal activity compared with parent ursolic/oleanolic acid: in words. Here is the method:
Antiparasitic activities were evaluated in vitro on Trypanosoma brucei brucei bloodstream forms (strain 427) (Tbb BSF). Tbb BSF were cultured in vitro at 37° C. with 5% CO2 in HMI9 medium containing 10% heat-inactivated fetal bovine serum, […] ([…]) and L-cysteine ([…]).
as §1, with “In vitro tests were performed as previously described by Hoet S. et al. (Planta Med., 2004, 70, 407-413, doi:10.1055/s-2004-818967). Suramine” for “Suramine”

For data set [3], the system named is Trypanosoma brucei brucei. Briefly: In vivo anti-trypanosomal activity in infected mice. The arrangement: species or system NMRI mice. The settings on record: end of experiment day 19 post-infection. The source says: NMRI mice (6-8 weeks of age) obtained from Envigo Laboratories (The Netherlands) were used. All in vivo experiments performed were approved by the Ethical Committee for animals use at the Health Sciences Sector of the Catholic University of Louvain (2017/UCL/MD/017).
Mice were randomly divided into 6 mice per group for 3-O-cis/trans-p-coumaroyltormentic acid (mixture of cis and trans) and ursolic acid, 4 for positive control (Suramine) and 7 for the negative control, and were infested intraperitoneally with 10^4 Trypanosoma brucei brucei. All compounds were solubilized in the vehicle (water-tween 80-ethanol) and administered intraperitoneally. 3-O-cis/trans-p-coumaroyltormentic acid or ursolic acid (UA) were administered at 50 mg/kg at day 3 after infection with the parasite and then every day until day 7 post-infection. Suramine (0.5 mg/kg) was administered while vehicle was used as a negative control. From day 3 post infection, a drop of blood collected each day from mouse-tail was used to count parasitemia.

Where [4] appears, read: cytotoxicity, WI-38 human fibroblasts, Table 3, read-out: WI38 (IC50 μM).
[5] abbreviates: cytotoxicity, WI-38 human fibroblasts, Table 3, read-out: WI38 (IC50 μg/mL).
Where [6] appears, read: Trypanosoma brucei, Tbb bloodstream forms strain 427, Table 3, read-out: Tbb (IC50 μM).
Setting [7] is: Trypanosoma brucei, Tbb bloodstream forms strain 427, Table 3, read-out: Tbb (IC50 μg/mL).
Setting [8] is: Table 4, same methods as example 3, read-out: Antitrypanosomal (Tbb) IC50 (μM, Mean ± Sd).
Where [9] appears, read: Table 4, same methods as example 3, read-out: Cytotoxicity (WI38) IC50 (μM, Mean ± Sd).
The mark [10] stands for this setting: Tbb bloodstream forms strain 427, Table 3.
The mark [11] stands for this setting: Tbb bloodstream forms strain 427, Table 3, read-out: Tbb (IC50 μM).
The mark [12] stands for this setting: cytotoxicity, WI-38 human fibroblasts, Table 3.

Results on 17 compounds are retold here after patent US12605351B2, “Method for producing a composition comprising a 3-O-p-coumaroyl ester of tormentic acid from a plant cell culture, applications thereof as antiparasitic agent for the treatment of trypanosomiasis” (LUXEMBOURG INSTITUTE OF SCIENCE AND TECHNOLOGY, priority 2019, dated 2026).

Like-named read-outs stand apart in the source and are kept apart here.

For `CC[C@@]1(O)C(=O)OCc2c1cc1n(c2=O)Cc2cc3ccccc3nc2-1` [Camptothecin], the IC50 in data set [1] (setting [4]) amounted to 0.12 ± 0.03 µM; in data set [1] (setting [5]), 0.04 ± 0.01 µg/mL.

On to `C[C@H]1[C@H](C)CC[C@]2(C(=O)O)CC[C@]3(C)C(=CC[C@@H]4[C@@]5(C)C[C@@H](O)[C@H](O)C(C)(C)[C@@H]5CC[C@]43C)[C@H]12` [Corosolic Acid], for which the IC50 is 7.3 ± 0.59 µM in data set [2] (setting [6]), 3.45 ± 0.23 µg/mL in data set [2] (setting [7]), 19.8 ± 5.22 µM in data set [1] (setting [4]) and 9.34 ± 2.47 µg/mL in data set [1] (setting [5]). Moreover, the “SI (Selectivity Index)” value in data set [2] amounted to 2.7.

In the case of `C[C@H]1[C@H](C)CC[C@]2(C(=O)O)CC[C@]3(C)C(=CC[C@@H]4[C@@]5(C)CC[C@H](OC(=O)CCc6ccccc6)C(C)(C)C5CC[C@]43C)[C@H]12` (some centres unmarked) [Derivative (II-1), 3-O-hydrocinnamic ursolic acid], the IC50 in data set [2] (setting [8]) turned out to be 2.22 ± 0.66 µM; in data set [1], 142 ± 3.45 µM.

Consider `C[C@H]1[C@H](C)CC[C@]2(C(=O)O)CC[C@]3(C)C(=CC[C@@H]4[C@@]5(C)CC[C@H](OC(=O)/C=C/c6ccccc6)C(C)(C)C5CC[C@]43C)[C@H]12` (some centres unmarked) [Derivative (II-2), 3-O-cinnamic ursolic acid], for which the IC50 in data set [2] (setting [8]) turned out to be 68.2 ± 2.15 µM.

Turning to `C[C@H]1[C@H](C)CC[C@]2(C(=O)O)CC[C@]3(C)C(=CC[C@@H]4[C@@]5(C)CC[C@H](OC(=O)CCc6ccc(F)cc6)C(C)(C)C5CC[C@]43C)[C@H]12` (some centres unmarked) [Derivative (II-3), 3-O-parafluorophenylpropionic ursolic acid], the IC50 in data set [2] (setting [8]) is 2.45 ± 0.3 µM; in data set [1] it was greater than 165 µM.

With `C[C@H]1[C@H](C)CC[C@]2(C(=O)O)CC[C@]3(C)C(=CC[C@@H]4[C@@]5(C)CC[C@H](OC(=O)CCc6cccc(F)c6)C(C)(C)C5CC[C@]43C)[C@H]12` (some centres unmarked) [Derivative (II-4), 3-O-metafluorophenylpropionic ursolic acid], the IC50 is 2.67 ± 0.83 µM in data set [2] (setting [8]) and greater than 165 µM in data set [1].

Regarding `C[C@H]1[C@H](C)CC[C@]2(C(=O)O)CC[C@]3(C)C(=CC[C@@H]4[C@@]5(C)CC[C@H](OC(=O)CCc6ccccc6F)C(C)(C)C5CC[C@]43C)[C@H]12` (some centres unmarked) [Derivative (II-5), 3-O-orthofluorophenylpropionic ursolic acid], the IC50 in data set [2] (setting [8]) was 1.66 ± 0.38 µM; in data set [1], greater than 132 µM.

For `CC1(C)CC[C@]2(C(=O)O)CC[C@]3(C)C(=CC[C@@H]4[C@@]5(C)CC[C@H](OC(=O)CCc6ccccc6)C(C)(C)C5CC[C@]43C)[C@@H]2C1` (some centres unmarked) [Derivative (II-6), 3-O-hydrocinnamic oleanolic acid], the IC50 in data set [2] (setting [8]) amounted to 2.59 ± 0.87 µM; in data set [1] (setting [9]), 23.5 ± 6.56 µM. Also, the “antitrypanosomal activity compared with parent ursolic/oleanolic acid” value in data set [2] is recorded as “significantly increased activity”. The “cytotoxicity compared with parent oleanolic acid” value in data set [1] was “significantly increased”.

Regarding `CC1(C)CC[C@]2(C(=O)O)CC[C@]3(C)C(=CC[C@@H]4[C@@]5(C)CC[C@H](OC(=O)/C=C/c6ccccc6)C(C)(C)C5CC[C@]43C)[C@@H]2C1` (some centres unmarked) [Derivative (II-7), 3-O-cinnamic oleanolic acid], the IC50 turned out to be 6.31 ± 0.96 µM in data set [2] (setting [8]) and 22.3 ± 1.88 µM in data set [1] (setting [9]).

For `CC1(C)CC[C@]2(C(=O)O)CC[C@]3(C)C(=CC[C@@H]4[C@@]5(C)CC[C@H](OC(=O)CCc6ccc(F)cc6)C(C)(C)C5CC[C@]43C)[C@@H]2C1` (some centres unmarked) [Derivative (II-8), 3-O-parafluorophenylpropionic oleanolic acid], the IC50 in data set [2] (setting [8]) amounted to 2.88 ± 1.11 µM; in data set [1] (setting [9]), 16.3 ± 3.26 µM. In addition, the “antitrypanosomal activity compared with parent ursolic/oleanolic acid” value in data set [2] is given as “significantly increased activity”. Also, the “cytotoxicity compared with parent oleanolic acid” value in data set [1] is “significantly increased”.

In the case of `CC1(C)CC[C@]2(C(=O)O)CC[C@]3(C)C(=CC[C@@H]4[C@@]5(C)CC[C@H](OC(=O)CCc6cccc(F)c6)C(C)(C)C5CC[C@]43C)[C@@H]2C1` (some centres unmarked) [Derivative (II-9), 3-O-metafluorophenylpropionic oleanolic acid], the IC50 in data set [2] (setting [8]) stood at 1.72 ± 0.07 µM; in data set [1] (setting [9]), 20.7 ± 2.25 µM. Further, in data set [2], the “antitrypanosomal activity compared with parent ursolic/oleanolic acid” value is reported as “significantly increased activity”. Also, the “cytotoxicity compared with parent oleanolic acid” value in data set [1] is “significantly increased”.

As for `CC1(C)CC[C@]2(C(=O)O)CC[C@]3(C)C(=CC[C@@H]4[C@@]5(C)CC[C@H](OC(=O)CCc6ccccc6F)C(C)(C)C5CC[C@]43C)[C@@H]2C1` (some centres unmarked) [Derivative (II-10), 3-O-orthofluorophenylpropionic oleanolic acid], the IC50 in data set [2] (setting [8]) was 4.63 ± 0.28 µM; in data set [1] (setting [9]) it was 18.6 ± 4.47 µM.

With `CC1(C)CC[C@]2(C(=O)O)CC[C@]3(C)C(=CC[C@@H]4[C@@]5(C)C[C@@H](O)[C@H](O)C(C)(C)[C@@H]5CC[C@]43C)[C@@H]2C1` [Maslinic acid], the IC50 was 9.41 ± 1.35 µM in data set [2] (Trypanosoma brucei, read-out: Tbb (IC50 μM)); 4.45 ± 0.64 µg/mL in data set [2] (Trypanosoma brucei, read-out: Tbb (IC50 μg/mL)); 44.1 ± 8.4 µM in data set [1] (Homo sapiens, WI-38, read-out: WI38 (IC50 μM)); 20.9 ± 3.97 µg/mL in data set [1] (Homo sapiens, WI-38, read-out: WI38 (IC50 μg/mL)). In addition, in data set [2], the “SI (Selectivity Index)” value was 4.6.

Consider `CC1(C)CC[C@]2(C(=O)O)CC[C@]3(C)C(=CC[C@@H]4[C@@]5(C)CC[C@H](O)C(C)(C)[C@@H]5CC[C@]43C)[C@@H]2C1` [Oleanolic acid], for which the IC50 was found to be 5.83 ± 0.7 µM in data set [2] (setting [6]), 2.66 ± 0.32 µg/mL in data set [2] (setting [7]), 63.3 ± 0.74 µM in data set [1] (setting [4]) and 28.9 ± 0.34 µg/mL in data set [1] (setting [5]). In data set [2], the “SI (Selectivity Index)” value came to 10.9.

Regarding `Cc1ccc(C(=O)Nc2ccc(S(=O)(=O)O)c3cc(S(=O)(=O)O)cc(S(=O)(=O)O)c23)cc1NC(=O)c1cccc(NC(=O)Nc2cccc(C(=O)Nc3cc(C(=O)Nc4ccc(S(=O)(=O)O)c5cc(S(=O)(=O)O)cc(S(=O)(=O)O)c45)ccc3C)c2)c1` [Suramine], the IC50 in data set [2] (setting [6]) was 0.038 ± 0.008 µM; in data set [2] (setting [7]), 0.05 ± 0.01 µg/mL. The “survival till the end of the experiment” value in data set [3] was “survive during all the experimental period”.

In the case of `C[C@@H]1CC[C@]2(C(=O)O)CC[C@]3(C)C(=CC[C@@H]4[C@@]5(C)C[C@@H](O)[C@H](O)C(C)(C)[C@@H]5CC[C@]43C)[C@@H]2[C@]1(C)O` [Tormentic acid], in data set [2] (setting [10]), the “Tbb (IC50 μg/mL)” value worked out at 7.49 ± 0.33 µg/mL. In addition, the IC50 in data set [2] (setting [11]) was 15.3 ± 0.67 µM; in data set [1] (setting [4]) it was 54.2 ± 0.67 µM. Also, the “WI38 (IC50 μg/mL)” value in data set [1] (setting [12]) is 26.48 ± 0.33 µg/mL.

Turning to Annurcoic acid, the “Tbb (IC50 μg/mL)” value in data set [2] (setting [10]) was 27.39 ± 2.24 µg/mL. Also, the IC50 turned out to be 56.3 ± 4.6 µM in data set [2] (setting [11]) and 144 ± 14 µM in data set [1] (setting [4]). Moreover, the “WI38 (IC50 μg/mL)” value in data set [1] (setting [12]) stood at 70.17 ± 6.82 µg/mL.
